Test results reported in patent US10722519B2, “Aerosol fluoroquinolone formulations for improved pharmacokinetics” (priority 2008, dated 2020).
In brackets after ≈: the same amount, converted by molar mass. Where two headings read alike, the source gives them in different places.

Experiments:
[1] = in vivo; conditions: rat, 10 mg/kg
Method: This example relates to aerosol and intravenous administration of fluoroquinolones in saline. A rat pharmacokinetic model was used to compare intravenous and pulmonary administration of fluoroquinolones. […] Doses were administered via the lateral tail vein, or to the lung just above the tracheal bifurcation using a micro-spray aerosol device (Penn Century, Philadelphia, Pa.).
Approximately 0.3 ml blood samples were taken from 2-6 rats at each timepoint via an indwelling jugular vein cannula, and collected in lithium heparin tubes. Bronchial alveolar lavage (BAL) and lung tissue were collected following euthanasia. […] Sample concentrations were determined against a standard curve.

[2] = test system: P. aeruginosa NH57388A; assay: MIC, broth microdilution; format: cell-based; conditions: P. aeruginosa NIH57388A CF
Method: (§1) Bacterial strains MIC testing: P. aeruginosa ATCC 27853 and NH57388A were used in these studies. MICs were determined by a broth microdilution assay according to CLSI reference methods (Methods for dilution of antimicrobial susceptibility test for bacteria that grow aerobically. Seventh Edition: Clinical and Laboratory Standards Institute (2006) M&-A7, incorporated by reference in its entirety). Assays were performed in a final volume of 100 μl. The bacterial suspensions were adjusted to yield a cell density of 5×10^5 CFU/ml. Antibiotics were prepared at a concentration equivalent to twofold the highest desired final concentration in culture medium and were then diluted directly into 96-well microtiter plates. Microtiter plates were incubated for 24 h at 35° C. and were read by using a microtiter plate reader (Molecular Devices) at 600 nm as well as by visual observation by using a microtiter plate reading mirror.

[3] = aerosol dose of […], adults with cystic fibrosis, Cooney et al. 1994; cited from earlier work
[4] = test system: P. aeruginosa NH57388A; assay: Chronic mouse lung infection model; format: in vivo; conditions: mice, aerosol tobramycin 60 mg/kg twice a day for three consecutive days
Method: Bacterial cells were harvested by centrifugation (23,000×g, 30 min, at 4° C.) and resuspended in 3-6 ml of MHB. The supernatant was collected and placed in 80° C. water-bath for 30 min. […] The precipitated alginate was collected with a sterile bacterial loop and washed several times in sterile saline. The purified alginate was then resuspended in 10 ml of sterile saline and stirred vigorously to form a homogeneous suspension. […] The bacterial suspension was diluted (1:10) in the alginate suspension to yield about 10^8 CFU/ml. […] On day 4, the mice were infected using a curved bead-tipped oral gavage attached to a 1 ml syringe while under isoflurane anesthesia.

[5] = test system: P. aeruginosa ATCC 27853; assay: Acute mouse lung infection model; conditions: mice; for survival rate: monitored over 9 days; for maximum dose, limited due to toxicity: aerosol route
Method: Aerosol Administration of antibiotics: Antibiotics were aerosolized using a microspray aerosol device (MicroSprayer Model IA-C, PennCentury, Philadelphia, Pa.) attached to a FMJ-250 High-Pressure Syringe (PennCentury, Philadelphia, Pa.). […] For administration, each mouse was anesthetized (5% isoflurane in oxygen running at 4 L/min) and positioned securely at a 45-50° angle by the upper teeth, the microspray aerosol tip was inserted to the bifurcation and a 50 μl volume was administered.
The bacterial suspensions were adjusted to approximately 1-6×10^5 CFU/ml by correlation of the absorbance at 600 nm with predetermined plate counts. […] On day 4, mice were infected by intratracheal (IT) instillation of 0.05 ml of inoculum using a curved oral gavage tip attached to a 1 ml syringe. […] Antibiotics were aerosolized using a microspray aerosol device. All infections and aerosol treatments were performed under isoflurane anesthesia (5% isoflurane in oxygen running at 4 L/min). An untreated group of mice (n=8) was sacrificed prior to the initiation of treatment to determine baseline bacterial counts. […] The lungs were removed aseptically and homogenized (Pro200 homogenizer, Pro Scientific, Monroe, Conn.) in 1 ml of sterile saline. Serial 10-fold dilutions of the homogenized lung were plated on Mueller-hinton agar (MHA), and colonies counted.
In addition, due to the need for anesthesia for treatment, the maximum number of daily doses was limited to two.

[6] = test system: P. aeruginosa ATCC 27853; assay: MIC, broth microdilution; format: cell-based; conditions: Pseudomonas aeruginosa, ATCC27853, P. aeruginosa ATCC27853
Method: as §1

[7] = male, Sprague-Dawley, in vivo, inhaled or intranasal
[8] = male, Sprague-Dawley, in vivo, iv
[9] = Pseudomonas aeruginosa, NH57388A, read-out: MIC

Compound	F, % from Lung vs IV ([1]; male, Sprague-Dawley, in vivo)	MAT ([1]; male, Sprague-Dawley, in vivo)	AUC [1, 7]	AUC(0-inf) [1, 7]	MRT [1, 7]	half-life [1, 7]	AUC [1, 8]	AUC(0-inf) [1, 8]	MRT [1, 8]	half-life [1, 8]	MIC [2, 9]	maximum dose, limited due to toxicity [5]	other results
CCn1cc(C(=O)O)c(=O)c2cc(F)c(N3CCNCC3)cc21 [Norfloxacin, norfloxacin]	100%	0 h	24600 ng·h/mL	4460 ng·h/mL	1.29 h	67.8 min	800 ng·h/mL	4650 ng·h/mL	1.59 h	72.6 min	–	–	–
NC[C@H]1O[C@H](O[C@H]2[C@H](O)[C@@H](O[C@H]3O[C@H](CO)[C@@H](O)[C@H](N)[C@H]3O)[C@H](N)C[C@@H]2N)[C@H](N)C[C@@H]1O [Tobramycin, tobramycin]	–	–	–	–	–	–	–	–	–	–	< 1 µg/mL	60 mg/kg	MIC [2]: 0.5 µg/mL (≈ 1.07 µM); bioavailability [3]: about 9%; mean log CFU reductions [4]: 2.9 log CFU; survival rate ([5]; aerosol 120 mg/kg/day (60 mg/kg BID)): 60%; mean reductions in bacterial counts ([5]; aerosol tobramycin 60 mg/kg twice a day for 2 consecutive days): 2.70 log CFU per lung
CO/N=C1\CN(c2nc3c(cc2F)c(=O)c(C(=O)O)cn3C2CC2)CC1CN (stereo not shown) [Gemifloxacin, gemifloxacin]	86%	0.65 h	140000 ng·h/mL	5860 ng·h/mL	2.06 h	101 min	900 ng·h/mL	4540 ng·h/mL	1.41 h	62.4 min	–	–	–
COc1c(N2CCNC(C)C2)c(F)cc2c(=O)c(C(=O)O)cn(C3CC3)c12 (stereo not shown) [Gatifloxacin, gatifloxacin]	100%	0 h	3120 ng·h/mL	5830 ng·h/mL	1.34 h	67.8 min	350 ng·h/mL	5310 ng·h/mL	1.39 h	63.6 min	–	–	–
C[C@H]1[C@H](NC(=O)/C(=N\OC(C)(C)C(=O)O)c2csc(N)n2)C(=O)N1S(=O)(=O)O [Aztreonam, aztreonam]	–	–	–	–	–	–	–	–	–	–	4 µg/mL (≈ 9.19 µM)	400 mg/kg	MIC [6]: 4 µg/mL (≈ 9.19 µM); survival rate ([5]; aerosol 800 mg/kg/day (400 mg/kg BID)): 20%; mean reductions in bacterial counts ([5]; aerosol aztreonam 400 mg/kg twice a day for 2 consecutive days): 0.24 log CFU per lung
O=C(O)c1cn(C2CC2)c2cc(N3CCNCC3)c(F)cc2c1=O [Ciprofloxacin, ciprofloxacin]	–	–	–	–	–	–	–	–	–	–	–	–	MAT ([1]; Aerosol, in saline): 0.59 h
